In patent publication US20230065158A1, “OXABICYCLOHEPTANES FOR TREATMENT OF SMALL CELL LUNG CANCER” (Lixte Biotechnology, Inc., priority 2021, published 2023):
Read-outs that look alike come from different tables or passages of the source.

Columns and labels:
H524 cells [1] = test: Cell Counting Kit-8 cytotoxicity and drug combination, H524
Experimental: A Mann-Whitney U test was used for comparison between the normal and SCLC samples. FIG. 1B: IHC for PP2A was conducted on TMA tissue sections and images were captured at 4× or 20× using a 3D-Histech PANNORAMIC SCAN whole slide scanner (3D-Histech, Budapest, Hungary). […] TMAs were scored in normal (n=24) and tumor (n=79) cores on a scale from 0 (no staining/no protein expression) to 3+(strong staining/high protein expression). FIG. 1C: Summary bar graph of the average PP2A subunit staining. IHC staining intensity of normal and tumor cores. […] FIG. 1D: In order to compare the expression of PP2A subunits A and C, cell lysates from seven SCLC cell lines and HBEC 3KT (non-malignant cell line) were subjected to western blotting. FIG. 1E: PP2A activity was determined using a serine/threonine phosphatase activity assay (Millipore) after 24 h exposure to cantharidin (10 μM) and LB-100 (5 μM). […] The Cell Counting Kit-8 assay detected cell H524 and H69 cell viability. […] FIGS. 1I-1K: Graphs depict the mean+SEM of percent viability for cells (n=3). Colony formation assays were used to count the ability of H524 (FIGS. 11 and 1J) and H69 (FIGS. 1K and 1L) cells to form colonies. […] Representative images of colonies at 4× are shown under the graph (n=2).*p<0.05; **, p<0.01; *** p<0.001; ****, p<0.0001. Experiments were repeated in triplicate and representative data are shown.

H524 cells [2] = test: Transendothelial extravasation assay through HUVEC monolayer, H524; type: cell-based; settings: after 20 h of drug treatment
Experimental: (§1) FIGS. 3A-3H depict SCLC cell invasion through HUVEC monolayer. FIGS. 3A-3D: Graphical representation of H524/H69 cell ability to disrupt a confluent HUVEC monolayer using an electrical substrate-impedance sensing system. Arrows indicate time point when cells were added. Inserts show mean values and SD for each group after 20 h of drug treatment. After treatment, cell viability was counted using an Auto T4 Cell Counter (Nexcelom Cellometer). […] Whole cell Pt accumulation. Graphical representation of LB-100 effect on platinum uptake by SCLC cells. Cells were pretreated with LB-100 (H524—5 μM; H69—20 μM) overnight, then treated with carboplatin for one or four hours (H524—10 μM; H69—30 μM). Whole cell pellet was used for platinum (Pt) measurement. Values are normalized to total protein concentration. FIGS. 3E and 3F: Panels show mean values and SD of Pt accumulation for each group. […] Effect of LB-100 on PP2A expression and apoptosis regulatory proteins in H524 and H69 cells. […]
(§2) To discern the effect of LB100 on cell invasion, we tested the ability of SCLC cells to invade though a layer of endothelial cells (ECs). Toward this end, we measured the trans-endothelial monolayer resistance using an electrical substrate-impedance sensing system (Applied Biophysics, Troy, N.Y., USA), as previously described (24). […]

H69 cells = test: Transendothelial extravasation assay through HUVEC monolayer, H69; type: cell-based; settings: after 20 h of drug treatment
Experimental: as §1, §2

[3] = tested on: H69 cells mouse xenograft; test: Subcutaneous H69 cells mouse xenograft; type: in vivo, Athymic nude mice; settings: for tumor weight compared to vehicle-treated group: end of experiment
Experimental: FIGS. 8A-8E depicts results of LB-100 activity alone and with carboplatin against H69 cells mouse xenograft. Tumor size (FIG. 8A) and body weights (FIG. 8B) were measured. Inhibition of tumor growth after LB-100 (*p<0.05), carboplatin (***p<0.001) and their combination (***p<0.001) were delivered via i.p. injections. P values show significant differences compared with vehicle group. FIG. 8C: Tumor images from vehicle and drug-treated groups. FIG. 8D: Tumor mass was measured at the end of experiment. […] FIG. 8E: Columns show total platinum (Pt) concentration in mouse tumors with carboplatin and LB-100/carboplatin treatments (n=3 as technical replicates) Pt mass was normalized to tumor total mass. Statistical analysis was performed using an ANOVA with Tukey post hoc-test (*p<0.05), carboplatin (**p<0.01).
Animal studies were performed according to an IACUC protocol approved by City of Hope National Medical Center Animal Care and Use Committee. Athymic nude mice (5-6 weeks of age) were purchased from NCI (Frederick, Md.). Mice were injected subcutaneously on their right flank with H69 cells suspended (2×106) in 100 μl of PBS and 100 μl of matrigel (BD Biosciences, San Jose, Calif.). Tumor growth was measured in two dimensions with caliper and when surface tumor was visible (45-50 mm2) mice were randomized in four groups as follow: vehicle (PBS, i.p. 3 times a week), LB100 (0.25 mg/kg, i.p. 3 times a week), carboplatin (50 mg/kg, i.p. 2 times a week) and drug combination (LB100/carboplatin i.p.) for 30 days. At the end of the study, the mice were euthanized by CO2 asphyxiation followed by cervical dislocation. Tumor tissues were excised, weighed, and subsequently fixed in 10% buffered formalin and embedded in paraffin for histological analysis.

H446 cells = test: Cell Counting Kit-8 cytotoxicity, H446
Text: To determine specific cytotoxicity, we used Cell Counting Kit-8 (Dojindo Molecular Technologies, Rockville, Md.) as previously described (50).

Compound | IC50 (H524 cells [1]; Homo sapiens, NCI-H524, 72 h, read-out: Cytotoxicity IC50, H524, 72 hours) | IC50 (H524 cells [1]; human, 72 h) | % change of HUVEC barrier disruption (transmigration) (H524 cells [2]) | % change of HUVEC barrier disruption (transmigration) (H69 cells) | tumor weight compared to vehicle-treated group [3] | tumor size ([3]; i.p., 30 days) | IC50 (H446 cells; Homo sapiens, NCI-H446, 72 h, read-out: Cytotoxicity IC50, H446) | IC50 (H524 cells [1]; read-out: Cytotoxicity IC50, H524, 72 hours) | IC50 (H446 cells; read-out: Cytotoxicity IC50, H446, 72 hours)
C[NH+]1CCN(C(=O)C2C(C(=O)O)[C@H]3CC[C@@H]2O3)CC1 (stereo in doubt) [LB-100, 3-[(4-Methylpiperazin-1-yl)carbonyl]-7-oxabicyclo[2.2.1]heptane-2-carboxylic acid] | < 8 µM | 5.3 µM | 16.9+2% | 12.3 ± 0.92% | significant reduction in tumor weight | statistically significant reduction in tumor size | < 8 µM |  | 
N.N.O=C([O-])C1(C(=O)[O-])CCC1.[Pt+2] [Carboplatin, reference compound] |  |  | 18.2 ± 0.4% | 14.9 ± 1.24% | significant reduction in tumor weight |  |  | 8.2 µM | 26.2 µM
